{
  "source": "patent US9604974B2",
  "about": "“Compounds as modulator of JAK-STAT pathway, methods and applications thereof” (UNIVERSITY OF MYSORE, priority 2015, dated 2017)",
  "format_in_all_cases": "cell-based, human",
  "key": {"c-Src": {"tested_on": "c-Src", "assay": "Western blot of constitutive phospho-Src in HepG2", "conditions": "HepG2, 10 μMol/L CIMO"}, "phospho-STAT3 (Ser-727)": {"tested_on": "phospho-STAT3 (Ser-727)", "assay": "Western blot of phospho-STAT3 (Ser-727) in HepG2", "conditions": "HepG2, 10 μMol/L CIMO", "procedure": "(§1) FIG. 2 depicts the suppression of phospho-STAT3 by compound 1 (CIMO) in a dose dependent manner [A]. HepG2 cells (5×10^5/mL) are treated with the indicated concentrations of CIMO for 6 hours, after which whole-cell extracts are prepared and resolved on SDS-PAGE gel, electrotransferred onto nitrocellulose membrane, and probed for phospho-STAT3. The same blot is stripped and reprobed with STAT3 antibody to verify equal protein loading. […] HepG2 cells (5×10^5/mL) are treated with the indicated concentrations of AG490 for about 6 hours, after which Western Blotting is done as described for [A]. [C] depicts the suppression of phospho-STAT3 levels by Compound 1 (CIMO) in a time-dependent manner. HepG2 cells (5×10^5/mL) are treated with 10 μMol/L CIMO for the indicated times, after which Western blotting is done as described for [A]. [D] depicts that compound 1 (CIMO) has no effect on phospho-STAT3 (Ser-727) and STAT3 protein expression. […] HepG2 cells (1×10^5/mL) are incubated with or without 10 μMol/L CIMO for about 6 hours and then analyzed for the intracellular distribution of STAT3 by immunocytochemistry. The same slides are counterstained for nuclei with Hoechst (50 ng/mL) for about 5 minutes and analyzed under an fluorescencemicroscope. […]"}, "STAT3": {"tested_on": "STAT3", "assay": "STAT3 DNA binding TransAM ELISA on nuclear extracts", "conditions": "HepG2 nuclear extracts, 10 μMol/L CIMO", "procedure": "It is further investigated whether CIMO modulates STAT3 DNA binding activity in HepG2 cells, since it is known that STAT3 dimer translocates into the nucleus and binds to specific DNA nucleotide sequence to regulate gene expression. DNA binding assay is performed using a STAT3 DNA binding TransAM™ ELISA kit (Active Motif, Carlsbad, Calif., USA). Briefly, nuclear extracts (5 μg) from CIMO-treated cells are incubated in a 96-well plate coated with oligonucleotide containing the STAT3-specific DNA probe. Bound STAT3 is then detected by a specific primary antibody. An HRP-conjugated secondary antibody is subsequently applied to detect the bound primary antibody and provided the basis for colorimetric quantification. The enzymatic product is measured at 450 nm with a microplate reader (Tecan Systems, San Jose, Calif., USA). Specificity of this assay is tested by the addition of wild-type or mutated STAT3 consensus oligonucleotide in the competitive or mutated competitive control wells before the addition of the nuclear extracts."}, "phospho-STAT3 (Y705)": {"tested_on": "phospho-STAT3 (Y705)", "assay": "Western blot of constitutive phospho-STAT3 (Y705) in HepG2", "procedure": "FIG. 2 depicts the suppression of phospho-STAT3 by compound 1 (CIMO) in a dose dependent manner [A]. HepG2 cells (5×10^5/mL) are treated with the indicated concentrations of CIMO for 6 hours, after which whole-cell extracts are prepared and resolved on SDS-PAGE gel, electrotransferred onto nitrocellulose membrane, and probed for phospho-STAT3. The same blot is stripped and reprobed with STAT3 antibody to verify equal protein loading. […] HepG2 cells (5×10^5/mL) are treated with the indicated concentrations of AG490 for about 6 hours, after which Western Blotting is done as described for [A]. [C] depicts the suppression of phospho-STAT3 levels by Compound 1 (CIMO) in a time-dependent manner. HepG2 cells (5×10^5/mL) are treated with 10 μMol/L CIMO for the indicated times, after which Western blotting is done as described for [A]. [D] depicts that compound 1 (CIMO) has no effect on phospho-STAT3 (Ser-727) and STAT3 protein expression. HepG2 cells (5×10^5/mL) are treated with 10 μMol/L CIMO for the indicated times, after which Western Blotting is done as described for [A] and membrane is probed using antibodies against phospho-STAT3 (Ser-727) and STAT3. […] HepG2 cells (1×10^5/mL) are incubated with or without 10 μMol/L CIMO for about 6 hours and then analyzed for the intracellular distribution of STAT3 by immunocytochemistry. The same slides are counterstained for nuclei with Hoechst (50 ng/mL) for about 5 minutes and analyzed under an fluorescencemicroscope. […] HepG2 cells (5×10^5/mL) are treated with 10 μMol/L CIMO, after which whole-cell extracts are prepared, resolved in SDS-PAGE, electrotransferred onto nitrocellulose membrane, and probed with phospho-Src, phospho-JAK1 and phospho-JAK2 antibodies. The same blots are stripped and reprobed with Src, JAK1 and JAK2 antibodies to verify equal protein loading. [G] depicts the suppression of STAT3 DNA binding ability by Compound 1 (CIMO) in HepG2 cells. HepG2 cells are treated with 10 μMol/L CIMO for the indicated time, nuclear extracts are prepared, and 5 μg of the nuclear extract protein is used for ELISA-based DNA-binding assay.\nCIMO is tested towards the inhibition of constitutive activation of STAT3 in HepG2 cells by Western Blotting via antibodies recognising phospho-STAT3 (Y705). For detection of phospho-proteins, CIMO treated whole-cell extracts are lysed in lysis buffer [20 mM Tris (pH 7.4), 250 mM NaCl, 2 mM Ethylenediaminetetraacetic acid (pH 8.0), 0.1% Triton-X-100, 0.01 mg/ml aprotinin, 0.005 mg/ml leupeptin, 0.4 mM phenylmethanesulfonylfluoride, and 4 mM NaVO4). Lysates are then spun at 14,000 rpm for about 10 minutes to remove insoluble material and resolved on SDS gel. After electrophoresis, the proteins are electrotransferred to a nitrocellulose membrane, blocked with 5% non-fat milk, and probed with various antibodies (1:1000) overnight at about 4° C. The blot is washed, exposed to HRP-conjugated secondary antibodies for about 1 hour, and finally examined by chemiluminescence (ECL; GE Healthcare, Little Chalfont, Buckinghamshire, UK)."}, "HepG2 cells": {"tested_on": "HepG2 cells", "assay": "Matrigel invasion assay", "conditions": "5 μMol/L CIMO, presence and absence of CXCL12", "procedure": "FIG. 5 depicts inhibition of cell migration by Compound 1 (CIMO) [A]. 70 μl HepG2 cells (5×10^5/mL) are seeded into each compartments of culture insert and insert is removed after about 12 hours. Width of the wound is measured initially and incubation is carried out with and without CIMO (5 μM, for about 8 hours) and CXCL12 (100 ng/mL, for about 24 hours). [B] Inhibition of cell invasion by Compound 1 (CIMO). HepG2 (2×10^5) cells are seeded in the top chamber of BD BioCoat™ Matrigel™. After pre-incubation with or without 5 μMol/L CIMO for about 8 hours, transwell chambers are placed into the wells of a 24-well plate which contains either only basal medium or basal medium with CXCL12 (100 ng/mL) for about 24 hours. After incubation, the chambers are assessed for cell invasion by staining with crystal violet.\nIn case of the invasion assay, the said assay is performed wherein BD (Biocoat™ Matrigel™) Invasion chamber with 8 μm pores in the light-tight polyethylene terephthalate membrane is taken and is coated with a reconstituted basement membrane gel (BD Biosciences). 2×10^5 cells are suspended in serum-free DMEM and seeded into the Matrigel Transwell chambers. The cells are incubated with CIMO for about 8 hours. […] The invading cells are then counted in five randomly selected areas under microscopic observation."}, "JAK2": {"tested_on": "JAK2", "assay": "Western blot of constitutive phospho-JAK2 in HepG2", "conditions": "HepG2, 10 μMol/L CIMO", "procedure": "as §1"}},
  "note": "Entries after “also recorded” stand apart in the source; their conditions may differ.",
  "data": [
    {"smiles": "COc1ccc(C2CNC(c3cn(Cc4ccc(-c5ccccc5C#N)cc4)c4ccccc34)OC23CCCCC3)cc1", "note": "(stereo not drawn) [Compound 1]", "values": [
      {"measurement": "phosphorylation of c-Src kinases", "setting": "c-Src", "value": "significant inhibition"},
      {"measurement": "phosphorylation of S727 of STAT3", "setting": "phospho-STAT3 (Ser-727)", "value": "no effect"},
      {"measurement": "binding of STAT3 to the DNA", "setting": "STAT3", "value": "suppresses the binding of STAT3 to the DNA in a time-dependent manner"},
      {"measurement": "time of maximum inhibition of phospho-STAT3", "setting": "phospho-STAT3 (Y705); HepG2", "value": 6, "unit": "h"},
      {"measurement": "phospho-STAT3 levels versus DMSO control", "setting": "phospho-STAT3 (Y705); HepG2, 4 μM CIMO", "value": "decreased phospho-STAT3 levels"},
      {"measurement": "protein levels of total STAT3 versus DMSO control", "setting": "phospho-STAT3 (Y705); HepG2, 4 μM CIMO", "value": "not significantly altered"},
      {"measurement": "concentration of maximum inhibition of phospho-STAT3", "setting": "phospho-STAT3 (Y705); HepG2, 6 hours", "value": 20, "unit": "µM"},
      {"measurement": "concentration for comparable phospho-STAT3 effect versus AG490", "setting": "phospho-STAT3 (Y705); HepG2, CIMO compared to AG490", "value": "ten-fold lower concentration"},
      {"measurement": "levels of phospho-STAT3 (Y705)", "setting": "phospho-STAT3 (Y705); HepG2, Western blot, dose and time course, listed as CIMO", "value": "substantially downregulated in a dose- and time-dependent manner; also recorded: completely inhibits"},
      {"measurement": "STAT3 protein expression", "setting": "phospho-STAT3 (Y705); HepG2, same blots reprobed", "value": "remains unchanged"},
      {"measurement": "inhibition of HepG2 cells motility (invasion)", "setting": "HepG2 cells", "value": "more than 50%"},
      {"measurement": "phosphorylation of JAK2", "setting": "JAK2", "value": "significant inhibition"}
    ]}
  ]
}
